Results on nine compounds are retold here after patent US8962846B2, “Melanocortin receptor antagonist compounds, process for preparing them and use thereof in human medicine and cosmetics” (Galderma Research & Development, priority 2008, dated 2015).

The target of one test is T1, hMC4-R (Homo sapiens, UniProt P32245).
T1 construct: expressed in transfected cells; host or cells: HEK293
Put plainly: Transactivation test: melanocortin receptors (CRE-Luc luciferase), hMC4-R. The format is cell-based. Particulars: HEK293 transfected with pCRE-Luc and receptor; 10-point dose response from 10 μM; antagonist behaviour tested in presence of 1 nM NDP-MSH; 6 hours incubation. The method, then: (§1) The lines HEK293 are transfected with vectors pCRE-Luc and hMCl1R or hMCl4R. The cells are cultured at 37° C. and 5% CO2, in DMEM medium supplemented with 10% foetal calf serum.
(§2) In the presence of an activator (agonist), the melanocortin receptor will activate the cAMP pathway, which, via the vector CRE-Luc, will lead to the synthesis of luciferase. After addition of a lysis buffer containing a luminescent luciferase substrate, the luminescence proportional to the degree of activation or inhibition of receptor may be measured.
(§3) The products are dissolved at 10 mM in DMSO. They are tested as a response dose at 0.1% of DMSO final. The range comprising 10 points and a zero starts at 10 μM with four-fold dilutions. To test agonists, the products are tested alone. To determine the antagonist behaviour, the products of interest are tested in the presence of 1 nM NDP-MSH (reference agonist). The cells are inoculated at a rate of 5000 cells per well (384-well plate) in serum-free DMEM medium and incubated overnight at 37° C. and 5% CO2.
(§4) The products and the reference ligand (NDP-MSH) are added the following day and the plates are reincubated for 6 hours at 37° C. and 5% CO2. After adding the lysis buffer containing luciferin, the plates are read in a Top-Count machine. The results are normalized as percentage of activity using the 100% (cells+NDP-MSH at 10 nM) and 0% (cells alone) controls. An EC50 is calculated for each product using the XLFit software.

The target in a further test is T2, hMC1-R (Homo sapiens, UniProt Q01726).
T2 construct: expressed in transfected cells; host or cells: HEK293
T2 sequence (Q01726 whole entry): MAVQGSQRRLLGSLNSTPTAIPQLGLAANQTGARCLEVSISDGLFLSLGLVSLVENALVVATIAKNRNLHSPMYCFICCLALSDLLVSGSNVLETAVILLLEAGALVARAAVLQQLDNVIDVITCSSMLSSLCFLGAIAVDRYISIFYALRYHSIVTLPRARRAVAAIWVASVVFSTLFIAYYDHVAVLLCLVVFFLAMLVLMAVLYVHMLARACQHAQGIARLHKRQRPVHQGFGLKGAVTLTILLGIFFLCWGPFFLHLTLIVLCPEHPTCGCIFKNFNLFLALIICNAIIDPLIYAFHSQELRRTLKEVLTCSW
Put plainly: Transactivation test: melanocortin receptors (CRE-Luc luciferase), hMC1-R. Format: cell-based. Particulars: HEK293 transfected with pCRE-Luc and receptor; 10-point dose response from 10 μM; antagonist behaviour tested in presence of 1 nM NDP-MSH; 6 hours incubation. The method, then: as §1, §2, §3, §4

Molecules are shown by their SMILES.

T1 sequence (P32245 whole entry): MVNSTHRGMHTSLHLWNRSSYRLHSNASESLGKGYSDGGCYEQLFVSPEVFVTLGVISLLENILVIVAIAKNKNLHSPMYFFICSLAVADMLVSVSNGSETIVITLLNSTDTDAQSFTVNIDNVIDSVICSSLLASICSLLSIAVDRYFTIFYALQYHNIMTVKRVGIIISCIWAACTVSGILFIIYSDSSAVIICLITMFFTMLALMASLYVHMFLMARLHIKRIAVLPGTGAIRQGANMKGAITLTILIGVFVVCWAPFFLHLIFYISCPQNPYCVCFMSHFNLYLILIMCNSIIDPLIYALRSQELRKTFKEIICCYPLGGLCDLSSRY

Broadly, the EC50 is the concentration at which the effect is half-maximal. With `COc1ccc(CC(NC(=O)NCCc2c[nH]cn2)C(=O)N2CCC(C(=O)NC(C)(C)C)(C3CCCCC3)CC2)cc1` (centres unmarked) [Example 1, 4-Cyclohexyl-1-[2-{3-[2-(1H-imidazol-4-yl)ethyl]ureido}-3-(4-methoxyphenyl)propionyl]piperidine-4-tert-butylcarbamoyl], at hMC4-R, the half-maximal effective concentration (EC50) was determined as 60 nM. Consider `CCCC(=O)C1(C2CCCCC2)CCN(C(=O)[C@@H](Cc2ccc(OC)cc2)NC(=O)NCCc2cn(C)cn2)CC1` [Example 2, 1-[(R)-2-(4-Butyryl-4-cyclohexylpiperidin-1-yl)-1-(4-methoxybenzyl)-2-oxoethyl]-3-[2-(1-methyl-1H-imidazol-4-yl)ethyl]urea], for which the 50% effective concentration (EC50) amounted to 1000 nM on hMC1-R and 50 nM at hMC4-R.

Turning to `CCCC(=O)C1(C2CCCCC2)CCN(C(=O)[C@@H](Cc2ccc(OC)cc2)NC(=O)NCCc2c[nH]nn2)CC1` [Example 3, 1-[(R)-2-(4-Butyryl-4-cyclohexylpiperidin-1-yl)-1-(4-methoxybenzyl)-2-oxoethyl]-3-[2-(1H-[1,2,3]triazol-4-yl)ethyl]urea], at hMC4-R, the concentration for a half-maximal effect (EC50) came to 50 nM. Take `CCOC(=O)C1(C2CCCCC2)CCN(C(=O)[C@@H](Cc2ccc(OC)cc2)NC(=O)NCCCc2cnc[nH]2)CC1` [Example 4, Ethyl 4-cyclohexyl-1-[(R)-2-{3-[3-(3H-imidazol-4-yl)propyl]-ureido}-3-(4-methoxyphenyl)propionyl]piperidine-4-carboxylate]: the half-maximal effective concentration (EC50) was 500 nM on hMC1-R and 20 nM on hMC4-R. In the case of `CCOC(=O)C1(C2CCCCC2)CCN(C(=O)[C@@H](Cc2ccc(Cl)c(Cl)c2)NC(=O)NCCc2c[nH]cn2)CC1` [Example 5, Ethyl 4-cyclohexyl-1-((R)-3-(3,4-dichlorophenyl)-2-{3-[2-(1H-imidazol-4-yl)ethyl]ureido}propionyl)piperidine-4-carboxylate], the EC50 on hMC4-R came out at 15 nM. The same measure, in the same setting: to `CCOC(=O)C1(C2CCCCC2)CCN(C(=O)[C@@H](Cc2ccc(Cl)c(Cl)c2)NC(=O)NCCc2cncn2C)CC1` [Example 6, Ethyl 4-cyclohexyl-1-((R)-3-(3,4-dichlorophenyl)-2-{3-[2-(3-methyl-3H-imidazol-4-yl)ethyl]ureido}propionyl)piperidine-4-carboxylate] belongs 10 nM.

Take `CCOC(=O)C1(C2CCCCC2)CCN(C(=O)[C@@H](Cc2ccc(OC)cc2)NC(=S)NCCCc2c[nH]cn2)CC1` [Example 7, Ethyl 4-cyclohexyl-1-[(R)-2-{3-[3-(1H-imidazol-4-yl)propyl]-thioureido}-3-(4-methoxyphenyl)propionyl]piperidine-4-carboxylate]: the EC50 at hMC1-R was 1000 nM; on hMC4-R, 50 nM. Consider `CCOC(=O)C1(C2CCCCC2)CCN(C(=O)[C@@H](Cc2ccc(OC)cc2)NC(=S)NCCc2cn(C)cn2)CC1` [Example 8, Ethyl 4-cyclohexyl-1-((R)-3-(4-methoxyphenyl)-2-{3-[2-(1-methyl-1H-imidazol-4-yl)ethyl]thioureido}propionyl)piperidine-4-carboxylate], for which the results for the EC50 on hMC1-R and at hMC4-R were 1000 nM and 50 nM, respectively. In the same order, the values of `CCOC(=O)C1(C2CCCCC2)CCN(C(=O)[C@@H](Cc2ccc(Cl)cc2Cl)NC(=O)NCCc2c[nH]cn2)CC1` [Example 9, Ethyl 4-cyclohexyl-1-((R)-3-(2,4-dichlorophenyl)-2-{3-[2-(1H-imidazol-4-yl)ethy]ureido}propionyl)piperidine-4-carboxylate] are 1000 nM and 2 nM.
